Experimental data reported in PubChem BioAssay AID1996.
Converted amounts (≈) assume the structure as drawn.

Conditions: buffer; pH 7.4; 200.0 µM

| Structure (SMILES) | solubility kinetic |
| --- | --- |
| O=C(COC(=O)/C=C/c1cccc(Br)c1)NCc1cccs1 | 5 µg/mL (≈ 13.1 µM) |
| CC1(C)CC(=O)C2=C(C1)NC(=S)C(C#N)C21CCCCC1 (stereo unspecified) | > 45.4 µg/mL |
| COc1cccc(NC(=S)N2CCN(S(C)(=O)=O)CC2)c1 | > 49.4 µg/mL |
| O=C(CN1CCOCC1)NNC(=O)c1ccc(Cl)cc1 | > 44.7 µg/mL |
| O=C(c1ccc2c(c1)OCO2)C1CCCN(C(=O)C2CCOCC2)C1 (stereo unspecified) | > 51.8 µg/mL |
| O=C(NCc1c(O)ccc2ccccc12)c1ccccc1 | 1 µg/mL (≈ 3.61 µM) |
| [NH-]S(=O)(=O)c1ccccc1.[Na+] | > 26.9 µg/mL |
| COc1ccc(CNC(=O)CCN2C(=S)NC(C)(C)CC2C)cc1 (stereo unspecified) | > 52.4 µg/mL |
| O=C(CCC1CCCCC1)NC1CCCCC1 | 16.6 µg/mL (≈ 69.9 µM) |
| O=C(OCC(=O)N1CCc2ccccc21)c1ccc[nH]c1=O | 8.6 µg/mL (≈ 28.8 µM) |
| Cc1cc(C)c(NC(=O)c2ccc3nccnc3c2)c(C)c1 | 41.5 µg/mL (≈ 142 µM) |
| O=C(NCCCN1CCOCC1)C(=O)NCc1ccc(Cl)cc1 | > 51 µg/mL |
| CN1CCN(S(=O)(=O)c2ccc3c(c2)oc(=O)n3C)CC1 | > 46.7 µg/mL |
| N/C(=N\OC(=O)C12CC3CC(CC(C3)C1)C2)c1ccncc1 | 17 µg/mL (≈ 56.8 µM) |
| O=C(NCCN1CCOCC1)c1ccc(Cl)cc1 | > 40.3 µg/mL |
| CC(C)(C)NC(=O)NC(=O)CN1CCCc2ccccc21 | 11.9 µg/mL (≈ 41.1 µM) |
| Cn1c(=NC(=O)C(C)(C)C)sc2cccc(F)c21 | 1 µg/mL (≈ 3.75 µM) |
| COc1cc2c(cc1OC)CC(C(=O)NCc1ccccc1)NC2 (stereo unspecified) | 33.2 µg/mL (≈ 102 µM) |
| O=C(CN1CCN(c2ccccc2F)CC1)c1ccc(O)c(O)c1 | 47.6 µg/mL (≈ 144 µM) |
| CCN(CC)S(=O)(=O)c1ccc(NC(=O)c2ccc(N3CCCC3=O)cc2)cc1 | 5 µg/mL (≈ 12 µM) |
| COC(=O)c1ccccc1NC(=O)Cn1cnc([N+](=O)[O-])c1 | > 45.6 µg/mL |
| Cc1nc2ccccc2c2c(N)c3ccccc3n12 | 16.4 µg/mL (≈ 66.3 µM) |
| CCn1ccc(-c2ccccc2)c(C#N)c1=O | > 33.6 µg/mL |
| Cc1cc(NCc2cccnc2)no1 | 28 µg/mL (≈ 148 µM) |
| Cc1ccc2cc(CCNC(=O)CCCc3ccccc3)c(=O)[nH]c2c1 | 2.2 µg/mL (≈ 6.31 µM) |
| O=C1Nc2ccccc2C1Cc1nc2ccccc2c(=O)n1-c1ccccc1 (stereo unspecified) | 55.1 µg/mL (≈ 150 µM) |

Now from value to compound:

| solubility kinetic | Structure (SMILES) |
| --- | --- |
| 8.1 µg/mL (≈ 27.1 µM) | O=S(=O)(c1ccc(-c2ccno2)s1)N1CCCCC1 |
| 5.7 µg/mL (≈ 18.3 µM) | CC(C)Cn1c(-c2ccc(Br)cc2)c[nH]c1=S |
| > 45.5 µg/mL | O=C(O)c1ccc(C2SCC(=O)N2Cc2ccco2)cc1 (stereo unspecified) |
| < 0.2 µg/mL | Cc1cccc2c3nc4ccccc4nc3n(C)c12 |
| > 39.8 µg/mL | CN(C)C(=S)Nc1ccc(N2CCOCC2)cc1 |
| 46.2 µg/mL (≈ 137 µM) | O=C(NCCc1ccccc1)C1CCC(=O)N1CCc1ccccc1 (stereo unspecified) |
| > 34.9 µg/mL | COCCNC(=S)N1CCCC(CO)C1 (stereo unspecified) |
| 12.4 µg/mL (≈ 96 µM) | c1ccc2ncccc2c1 |
| 4 µg/mL (≈ 12.2 µM) | O=C(NCCOc1ccc(Cl)cc1)c1ccc2ccccc2n1 |
| 21.3 µg/mL (≈ 85.8 µM) | Cc1cccc(OCCCCN2CCNCC2)c1 |
| > 46.8 µg/mL | O=C(NN1C(=O)C2C3C=CC(C3)C2C1=O)C(O)c1ccccc1 (stereo unspecified) |
| 45.3 µg/mL (≈ 126 µM) | COc1cc(OC)cc(C(=O)N[C@H](C(=O)NCc2ccco2)C(C)C)c1 |
| 44.3 µg/mL (≈ 126 µM) | C=CCOc1c(Br)cc(/C=C2/C(=O)ON=C2C)cc1OC |
| 45.9 µg/mL (≈ 145 µM) | CNC(=S)NC1CC2CCCC(C1)N2Cc1ccc(C)cc1 (stereo unspecified) |
| 2.6 µg/mL (≈ 7.66 µM) | COc1ccc(-c2onc(C)c2-c2ccc3c(c2)OCCO3)c(O)c1 |
| > 35.6 µg/mL | CC1CN(c2ccc([N+](=O)[O-])cn2)CC(C)O1 (stereo unspecified) |
| > 45.8 µg/mL | CCOc1ccc(NC(=O)C(C)Sc2nccn2C)cc1 (stereo unspecified) |
| 16.3 µg/mL (≈ 62.8 µM) | Cc1cc(-c2onc3ccc(Cl)cc23)ccc1O |

| solubility kinetic | Structure (SMILES) |
| --- | --- |
| > 35.9 µg/mL | c1cncc(-c2csc(-c3cccnc3)n2)c1 |
| 37.3 µg/mL (≈ 128 µM) | O=C1CC(N2CCc3ccccc32)C(=O)N1c1ccccc1 (stereo unspecified) |
| 51.3 µg/mL (≈ 130 µM) | CCC1CCCCN1Cc1c(O)ccc2c(=O)c(-c3ccccc3OC)coc12 (stereo unspecified) |
| 40.8 µg/mL | Cn1c(=O)n(CC(=O)[O-])c(=O)c2c1nc1n2CCS1 |
| > 51.1 µg/mL | O=C(Cn1c(=O)oc2ccccc21)NCC1COc2ccccc2O1 (stereo unspecified) |
| > 39.6 µg/mL | Cl.Nc1ccc2nc(CCCO)[nH]c2c1 |
| 37.6 µg/mL (≈ 149 µM) | COc1ccc(NC2SC(=O)N(C)C2=O)cc1 (stereo unspecified) |
| 0.5 µg/mL (≈ 1.62 µM) | Cc1cc(C)cc(NC(=O)CN2C(=O)c3ccccc3C2=O)c1 |
| > 43.4 µg/mL | C=CCn1c(N2CCCC2)nc2c1c(=O)n(C)c(=O)n2C |
| > 37.1 µg/mL | O=C(C1COc2ccccc2O1)N1CCCCC1 (stereo unspecified) |
| > 50.3 µg/mL | O=C(Nc1ccccc1C(F)(F)F)N1CCCC1c1cccnc1 (stereo unspecified) |
| 6.7 µg/mL (≈ 24.1 µM) | CCOc1ncccc1C(=O)Nc1ccc(F)c(F)c1 |
| > 66.1 µg/mL | CCOC(=O)c1c(C)[nH]c(C)c1C(=O)COC(=O)C1CC(=O)N(CCc2ccccc2)C1 (stereo unspecified) |
| 13.3 µg/mL (≈ 49.4 µM) | Cc1ccc(NC(=O)C2COc3ccccc3O2)cc1 (stereo unspecified) |
| 32.1 µg/mL (≈ 121 µM) | Cc1ccc(NCc2nc3ccccc3n2C)c(C)c1 |
| 6 µg/mL (≈ 22 µM) | CNc1ccc(Oc2c(F)c(F)nc(F)c2F)cc1 |
| > 47.3 µg/mL | Cc1nc2ccccc2c(=O)n1NC(=O)c1c(F)cccc1F |
